ChEMBL document CHEMBL4477260, “Arylazolyl(azinyl)thioacetanilides. Part 20: Discovery of novel purinylthioacetanilides derivatives as potent HIV-1 NNRTIs via a structure-based bioisosterism approach” (Bioorg Med Chem, 2016)

Key:
[1] = test system: Human immunodeficiency virus 1; assay: Antiviral activity against human HIV-1 3B infected in human MT4 cells assessed as protection from virus-induced cytopathic effect measured 5 days post infection by MTT assay; type: functional, organism-based; settings: Human immunodeficiency virus 1, 3B, MT4, 120 h
[2] = Cytotoxicity against mock-infected human MT4 cells assessed as reduction of cell viability after 5 days by MTT assay; type: cell-based
[3] = test system: Human immunodeficiency virus 1; assay: Antiviral activity against human HIV-1 3B harboring reverse transcriptase Y181C mutant infected in human MT4 cells assessed as protection from virus-induced cytopathic effect measured 5 days post infection by MTT assay; type: functional, organism-based; settings: Human immunodeficiency virus 1, 3B, MT4, 120 h
[4] = Selectivity index, ratio of CC50 for mock-infected human MT4 cells to EC50 for human HIV-1 3B infected in human MT4 cells; type: toxicity, cell-based; settings: MT4 cells (mock-infected for CC50, HIV-1-infected for EC50)
[5] = Selectivity index, ratio of CC50 for mock-infected human MT4 cells to EC50 for human HIV-1 3B harboring RES056 mutant infected in human MT4 cells; type: toxicity, cell-based; settings: MT4 cells (mock-infected for CC50, HIV-1-infected for EC50)
[6] = test system: Human immunodeficiency virus 1; assay: Antiviral activity against human HIV-1 3B harboring RES056 mutant infected in human MT4 cells assessed as protection from virus-induced cytopathic effect measured 5 days post infection by MTT assay; type: functional, organism-based; settings: Human immunodeficiency virus 1, 3B, MT4, 120 h
[7] = target: Human immunodeficiency virus type 1 reverse transcriptase (Human immunodeficiency virus 1, UniProt Q72547); assay: Inhibition of HIV-1 reverse transcriptase assessed as reduction in biotin-duTP incorporation using biotin-labeled dUTP and hybrid poly(A)-oligo (dT)15 template primer after 2 hrs by ELISA
[8] = Selectivity index, ratio of CC50 for mock-infected human MT4 cells to EC50 for human HIV-1 3B harboring Y188L mutant infected in human MT4 cells; type: toxicity, cell-based; settings: MT4 cells (mock-infected for CC50, HIV-1-infected for EC50)
[9] = Selectivity index, ratio of CC50 for mock-infected human MT4 cells to EC50 for human HIV-1 3B harboring E138K mutant infected in human MT4 cells; type: toxicity, cell-based; settings: MT4 cells (mock-infected for CC50, HIV-1-infected for EC50)
[10] = Selectivity index, ratio of CC50 for mock-infected human MT4 cells to EC50 for human HIV-1 3B harboring L100I mutant infected in human MT4 cells; type: toxicity, cell-based; settings: MT4 cells (mock-infected for CC50, HIV-1-infected for EC50)
[11] = Selectivity index, ratio of CC50 for mock-infected human MT4 cells to EC50 for human HIV-1 3B harboring F227L/V106A double mutant infected in human MT4 cells; type: toxicity, cell-based; settings: MT4 cells (mock-infected for CC50, HIV-1-infected for EC50)
[12] = Selectivity index, ratio of CC50 for mock-infected human MT4 cells to EC50 for human HIV-1 3B harboring K103N mutant infected in human MT4 cells; type: toxicity, cell-based; settings: MT4 cells (mock-infected for CC50, HIV-1-infected for EC50)
[13] = Selectivity index, ratio of CC50 for mock-infected human MT4 cells to EC50 for human HIV-1 3B harboring Y181C mutant infected in human MT4 cells; type: toxicity, cell-based; settings: MT4 cells (mock-infected for CC50, HIV-1-infected for EC50)
[14] = test system: Human immunodeficiency virus 1; assay: Antiviral activity against human HIV-1 3B harboring reverse transcriptase L100I mutant infected in human MT4 cells assessed as protection from virus-induced cytopathic effect measured 5 days post infection by MTT assay; type: functional, organism-based; settings: Human immunodeficiency virus 1, 3B, MT4, 120 h
[15] = test system: Human immunodeficiency virus 1; assay: Antiviral activity against human HIV-1 3B harboring reverse transcriptase Y188L mutant infected in human MT4 cells assessed as protection from virus-induced cytopathic effect measured 5 days post infection by MTT assay; type: functional, organism-based; settings: Human immunodeficiency virus 1, 3B, MT4, 120 h
[16] = test system: Human immunodeficiency virus 1; assay: Antiviral activity against human HIV-1 3B harboring reverse transcriptase E138K mutant infected in human MT4 cells assessed as protection from virus-induced cytopathic effect measured 5 days post infection by MTT assay; type: functional, organism-based; settings: Human immunodeficiency virus 1, 3B, MT4, 120 h
[17] = test system: Human immunodeficiency virus 1; assay: Antiviral activity against human HIV-1 3B harboring reverse transcriptase F227L/V106A double mutant infected in human MT4 cells assessed as protection from virus-induced cytopathic effect measured 5 days post infection by MTT assay; type: functional, organism-based; settings: Human immunodeficiency virus 1, 3B, MT4, 120 h
[18] = test system: Human immunodeficiency virus 1; assay: Antiviral activity against human HIV-1 3B harboring reverse transcriptase K103N mutant infected in human MT4 cells assessed as protection from virus-induced cytopathic effect measured 5 days post infection by MTT assay; type: functional, organism-based; settings: Human immunodeficiency virus 1, 3B, MT4, 120 h

SMILES	EC50 [1] [µM]	CC50 at 120 h [2] [µM]	selectivity ratio [4]	selectivity ratio [5]	EC50 [6] [µM]	also measured
Cc1cc(C#N)cc(C)c1Oc1nc(Nc2ccc(C#N)cc2)nc(N)c1Br [ETRAVIRINE]	0.00335	2.46				EC50 [3]: 0.015 µM
CC(Sc1nc2cnc(Cl)nc2n1-c1ccc(C2CC2)c2ccccc12)C(=O)Nc1ccc(S(N)(=O)=O)cc1Cl (stereo not drawn)	4.04	17.6	4	≤ 3	≥ 5.74	
CC(Sc1nc2cnc(Cl)nc2n1-c1cccc2ccccc12)C(=O)Nc1ccc(S(N)(=O)=O)cc1Br (stereo not drawn)	0.78	19	24	< 1	> 19	IC50 [7]: 6.42 µM
COC(=O)c1ccc(NC(=O)CSc2nc3cnc(Cl)nc3n2-c2ccc(C3CC3)c3ccccc23)c(Br)c1	> 153	153	< 1			
NC(=O)c1ccc(NC(=O)CSc2nc3cnc(Cl)nc3n2-c2cccc3ccccc23)c(Br)c1	1.8	21.6	12	< 1	> 21.6	
O=C1Nc2ccc(Cl)cc2[C@@](C#CC2CC2)(C(F)(F)F)O1 [EFAVIRENZ]		≥ 6.34				
CC(C)Nc1cccnc1N1CCN(C(=O)c2cc3cc(NS(C)(=O)=O)ccc3[nH]2)CC1 [DELAVIRDINE]	0.0383	36.8				selectivity ratio [8]: 44; selectivity ratio [9]: 715; selectivity ratio [10]: 14; selectivity ratio [11]: 16; selectivity ratio [12]: 12; selectivity ratio [13]: 15
CC(Sc1nc2cnc(Cl)nc2n1-c1ccc(C2CC2)c2ccccc12)C(=O)Nc1ccc(S(N)(=O)=O)cc1Br (stereo not drawn)	2.75	15.9	6	1	> 15.9	
CC(Sc1nc2cnc(Cl)nc2n1-c1cccc2ccccc12)C(=O)Nc1ccc(S(N)(=O)=O)cc1Cl (stereo not drawn)	1.07	21.5	20	< 1	> 21.5	
CC(Sc1nc2cnc(Cl)nc2n1-c1ccc(C2CC2)c2ccccc12)C(=O)Nc1ccc(C(N)=O)cc1Br (stereo not drawn)	7.22	55.9	8	10	22.2	EC50 [14]: 5.64 µM; EC50 [15]: > 55.8 µM; EC50 [16]: ≥ 65.1 µM; selectivity ratio [8]: < 1; EC50 [17]: > 55.8 µM; selectivity ratio [9]: ≤ 1; selectivity ratio [10]: 8; selectivity ratio [11]: < 1; EC50 [18]: ≥ 48.1 µM; selectivity ratio [12]: ≤ 1; selectivity ratio [13]: < 1; EC50 [3]: > 55.8 µM
CC(Sc1nc2cnc(Cl)nc2n1-c1cccc2ccccc12)C(=O)Nc1ccc(C(N)=O)cc1Cl (stereo not drawn)	2.73	23.6	9	< 1	> 23.6	
NC(=O)c1ccc(NC(=O)CSc2nc3cnc(Cl)nc3n2-c2ccc(C3CC3)c3ccccc23)c(Br)c1	> 11.2	11.2	< 1			
NS(=O)(=O)c1ccc(NC(=O)CSc2nc3cnc(Cl)nc3n2-c2cccc3ccccc23)cc1	4.46	104	23	< 1	> 104	
NC(=O)c1ccc(NC(=O)CSc2nc3cnc(Cl)nc3n2-c2cccc3ccccc23)c(Cl)c1	4.56	22.7	5	< 1	> 22.7	
COC(=O)c1ccc(NC(=O)CSc2nc3cnc(Cl)nc3n2-c2cccc3ccccc23)c(Br)c1	1.66	156	94	< 1	> 156	
NC(=O)c1ccc(NC(=O)CSc2nc3cnc(Cl)nc3n2-c2ccc(C3CC3)c3ccccc23)c(Cl)c1	> 6.39	6.39	< 1			
NC(=O)c1ccc(NC(=O)CSc2nc3cnc(Cl)nc3n2-c2cccc3ccccc23)cc1	≥ 28.8	156	≤ 5	< 1	> 156	
CC(Sc1nc2cnc(Cl)nc2n1-c1cccc2ccccc12)C(=O)Nc1ccc(C(N)=O)cc1Br (stereo not drawn)	1.86	21.8	12	< 1	> 21.8	
NS(=O)(=O)c1ccc(NC(=O)CSc2nc3cnc(Cl)nc3n2-c2ccc(C3CC3)c3ccccc23)cc1	18.7	113	6	< 1	> 113	
Cc1ccnc2c1NC(=O)c1cccnc1N2C1CC1 [NEVIRAPINE]		≥ 15				
CCOC(=O)c1ccc(NC(=O)CSc2nc3cnc(Cl)nc3n2-c2cccc3ccccc23)c(Br)c1	3.43	109	32	< 1	> 109	
O=C(CSc1nc2cnc(Cl)nc2n1-c1cccc2ccccc12)Nc1ccc(C(F)(F)F)cc1	> 14.3	14.2	< 1			
CC(Sc1nc2cnc(Cl)nc2n1-c1ccc(C2CC2)c2ccccc12)C(=O)Nc1ccc(C(N)=O)cc1Cl (stereo not drawn)	> 25.1	25.1	< 1			
O=C(CSc1nc2cnc(Cl)nc2n1-c1ccc(C2CC2)c2ccccc12)Nc1ccc(C(F)(F)F)cc1	> 16.2	16.2	< 1	< 1		
CCOC(=O)c1ccc(NC(=O)CSc2nc3cnc(Cl)nc3n2-c2ccc(C3CC3)c3ccccc23)c(Br)c1	> 150	150	< 1			
